According to patent US20230346827A1 (priority 2020, published 2023):

Test system: Human Schwann cells
Assay: Gene expression array and pathway analysis, Schwann cells, LMW-DS 0.01 mg/ml 48 h
Format: cell-based
Conditions: for number of genes: abolished nutrient effect / number of genes: total / number of genes: enhanced response to nutrients / number of genes: new effect induced by LMW-DS / number of genes: not different from control / Activation z-score / Predicted activation state relative D2 control: Schwann cells; for Activation z-score / Predicted activation state relative D2 control: D2 LMW-DS treatment
Description: For each cell line, n=8 × 25 cm^2 culture flasks were set up. Two flasks were harvested for each cell type on the day of treatment (24 hours after seeding). This represents the Day0 time point. From the remaining flasks, three flasks were treated with Control Medium and three were treated with Culture Medium (CM) containing LMW-DS to give a final concentration of 0.01 mg/ml. Cells from the treated flasks were collected after 48 hours. Therefore the collected data represent (a) untreated cells (Day0 Controls and Day2 Controls) and (b) cells treated with LMW-DS (ILB®, Tikomed AB, Viken, Sweden, WO 2016/076780) for 48 hours (Day2 LMW-DS treated).
Schwann cells growth medium was prepared by adding 10% of fetal bovine serum (FBS) to high-glucose DMEM and pre-warmed to 37° C. Cells were thawed in a 37° C. water bath for no longer than 2 min.
Cells from 12 vials were each gently transferred to a tube containing 10 ml of high-glucose DMEM medium and centrifuged at 400 relative centrifugal field (RCF) for 10 min. Pellet was re-suspended in culture medium. The cells from the 12 vials were mixed and distributed equally into the previously coated 25 cm^2 flasks (n=8). Cells were incubated at 37° C. with 5% CO2. Cells were allowed to settle for 24 hours before LMW-DS treatment.
LMW-DS was provided at a stock concentration of 20 mg/ml and was kept in a temperature monitored refrigerator at 4° C. A fresh 100x LMW-DS stock (1.0 mg/ml) was prepared in sterile DMEM-F12. The concentrated drug stock was sterile filtered and added to the respective culture media (19.6 ml CM and 0.4 ml LMW-DS stock solution). The Control was made using 19.6 ml CM and 0.4 ml of DMEM-F12. LMW-DS and CM were added to the respective flasks (5 ml each) to reach the 0.01 mg/ml concentration of LMW-DS in each dish with a total of 10 ml CM each.
CM was aspirated into a clean and labelled 15 ml Falcon tube. The flasks (without culture medium) were placed into the -80° C. freezer for 30 minutes. The CM in the Falcon tubes was spun at 3000 x g for 5 minutes. Supernatant was removed and the small pellet was re-suspended in 2.5 ml Trizol:Water (4:1) solution at room temperature (RT, ~22° C.).
Two aliquots of 1 ml lysate were removed from each sample and 200 µl of chloroform was added to each (0.2 ml of chloroform per 1 ml of TRIzol Reagent used during the cell lysis step) and the tube was shaken vigorously. Samples were stored at RT for 2-3 minutes and subsequently centrifuged at 12,000 x g for 15 minutes at 4° C.
The RNA was precipitated from the aqueous phase by adding an equal amount of 100% ethanol. The precipitated RNA was fixed onto a Spin Cartridge, washed twice and dried. The RNA was eluted in 50 µl warm RNase-Free Water. The amount and quality of the purified RNA was measured by Nanodrop. The RNA was stored at -80° C. before transfer to Source Bioscience for Array analysis.
The expression data were downloaded into separate files for each cell line. The ‘Background corrected’ expression is the data from the “gProcessedSignal” of the arrays that is the result of the background signal extracted from the actual signal of the relevant probe. This is the most often used variable in array analysis. The background corrected signal was log2 transformed for all samples for statistical analysis. To reduce the false discovery rate in the samples, the signals that were below ‘expression level’ were removed. The ‘below expression’ level was set at 5 for the log2 transformed expression values.
Based on the expression pattern of the Control probes on each array it was decided to carry out Median Centering for all arrays before analysis to reduce the variability of the results. […]

[1] = pathway analysis of gene expression
[2] = upstream regulator HGF (from line above)

sodium salt of dextran sulfate [LMW-DS]
attachment-related molecules differentially expressed: 17 | number of differentially expressed genes (D0 control to D2 LMW-DS treated): 1244 | number of differentially expressed genes (D2 control to D2 LMW-DS treated): 700 | number of genes: abolished nutrient effect (no effect): 21 | number of genes: total (no effect): 21 | number of genes: abolished nutrient effect (significant downregulation): 1 | number of genes: enhanced response to nutrients (significant downregulation): 122 | number of genes: new effect induced by LMW-DS (significant downregulation): 352 | number of genes: not different from control (significant downregulation): 42 | number of genes: total (significant downregulation): 517 | number of genes: abolished nutrient effect (significant upregulation): 13 | number of genes: enhanced response to nutrients (significant upregulation): 441 | number of genes: new effect induced by LMW-DS (significant upregulation): 74 | number of genes: not different from control (significant upregulation): 373 | number of genes: total (significant upregulation): 901 | number of genes: abolished nutrient effect (total): 35 | number of genes: enhanced response to nutrients (total): 563 | number of genes: new effect induced by LMW-DS (total): 426 | number of genes: not different from control (total): 415 | number of genes: total (total): 1439 | TGFβ-induced effect in adhesion of immune cells, activation and aggregation of cells, fibrosis, self-activation of TGFβ (molecular network analysis): totally abolished | Complex III (cytochrome bc1) [1]: inhibited | activity and/or levels of glutamate transporters (SLC1A2/3) [1]: increased | genes altered in Control cultures with no changes in LMW-DS treated cultures (two days): 21 | genes downregulated by growth factors, downregulation stronger with LMW-DS (two days): 122 | genes downregulated in control cultures, upregulated in LMW-DS treated cultures (two days): 13 | genes increased in control cultures, downregulated in LMW-DS treated cultures (two days): 1 | genes upregulated in Control cultures, upregulation stronger with LMW-DS (two days): 441 | Activation z-score (upstream regulator ANGPT2): 1.283 | Predicted activation state relative D2 control (upstream regulator ANGPT2): Activated | Activation z-score (upstream regulator BMP2): 1.395 | Predicted activation state relative D2 control (upstream regulator BMP2): Activated | Activation z-score (upstream regulator BMP4): 0.927 | Predicted activation state relative D2 control (upstream regulator BMP4): Activated | Activation z-score (upstream regulator BMP7): 1.86 | Predicted activation state relative D2 control (upstream regulator BMP7): Activated | Activation z-score (upstream regulator EGF): 2.059 | Predicted activation state relative D2 control (upstream regulator EGF): Activated | Activation z-score (upstream regulator FGF2): 2.37 | Predicted activation state relative D2 control (upstream regulator FGF2): Activated | Activation z-score (upstream regulator GDF2): 2.561 | Predicted activation state relative D2 control (upstream regulator GDF2): Activated | Activation z-score [2]: 1.432 | Predicted activation state relative D2 control [2]: Activated | Activation z-score (upstream regulator IGF1): 1.332 | Predicted activation state relative D2 control (upstream regulator IGF1): Activated | Activation z-score (upstream regulator NRG1): 1.768 | Predicted activation state relative D2 control (upstream regulator NRG1): Activated | Activation z-score (upstream regulator NRTN): 0.958 | Predicted activation state relative D2 control (upstream regulator NRTN): Activated | Activation z-score (upstream regulator PGF): 0.254 | Predicted activation state relative D2 control (upstream regulator PGF): Activated | Activation z-score (upstream regulator TGFβ1): 1.05 | Predicted activation state relative D2 control (upstream regulator TGFβ1): Less inhibited | Activation z-score (upstream regulator VEGFA): 3.4 | Predicted activation state relative D2 control (upstream regulator VEGFA): Activated | Activation z-score (upstream regulator WISP2): -0.896 | Predicted activation state relative D2 control (upstream regulator WISP2): Less inhibited
